Results on 11 molecules are retold here after US20060079453A1, “Hla binding peptides and their uses” (priority 2002, published 2006).

What all share (assay): biochemical
Assay type in all cases: binding

Test [1] deals with HLA-DR DRB1*0101 (DR1) (Homo sapiens, UniProt P01903+P01911, A100R/D57E/F55L/F60I/F76Y/I96L/L162R/M171V/P40L/Q125E/R42F/V115G/Y59C). Particulars: DRB1 *0101.
Test [2] addresses HLA-DR DRB1*0401 (DR4) (Homo sapiens, UniProt P01903+P01911, A100K/A169T/F76Y/I96L/K127E/L162R/M171V/N62H/P40V/Q125Y/R42H/S133A/S149N/S66Y/V115G/V209L/W38E). As to conditions: DRB1 *0401.
The target of test [3] is HLA-DR DRB1*0701 (DR7) (Homo sapiens, UniProt P01903+P01911, A100R/A102G/A103Q/D57E/D86V/E43K/F76Y/K127E/L162R/M171V/P40G/Q125H/Q99D/R33Q/R42Y/R54Q/S133A/S66F/T210M/V115G/Y107V/Y59L/Y89S). As to conditions: DRB1 *0701.
In test [4] the target is HLA-DR DRB1*0802 (DR8) (Homo sapiens, UniProt P01903+P01911, A100R/A103L/A169T/F76Y/H45Y/I96F/K41T/L162R/M171V/P40S/Q125H/Q178H/Q39Y/Q99D/R218S/R42G/S66Y/V115G/W38E).
In test [5] the target is HLA-DR DRB1*0901 (DR9) (Homo sapiens, UniProt P01903+P01911, A100R/A103E/D57H/D86V/F55Y/F60I/F76Y/I96F/K127E/L162R/M171V/P40D/Q125H/Q99R/R33Q/R42F/S133A/S66N/T210M/V115G/W38K/Y107V/Y59G/Y89S). As to conditions: DRB1 *0901.
In test [6] the target is HLA-DR DRB1*1101 (DR11) (Homo sapiens, UniProt P01903+P01911, A100R/A169T/A87E/I96F/K41T/L162R/M171V/P40S/Q125H/Q178H/Q39Y/Q99D/R42S/S66Y/T262R/V115G/W38E). As to conditions: DRB1 *1101.
Chain of HLA-DR DRB1*1101 (DR11) (P01903 26-254 limits assumed, other chains not shown): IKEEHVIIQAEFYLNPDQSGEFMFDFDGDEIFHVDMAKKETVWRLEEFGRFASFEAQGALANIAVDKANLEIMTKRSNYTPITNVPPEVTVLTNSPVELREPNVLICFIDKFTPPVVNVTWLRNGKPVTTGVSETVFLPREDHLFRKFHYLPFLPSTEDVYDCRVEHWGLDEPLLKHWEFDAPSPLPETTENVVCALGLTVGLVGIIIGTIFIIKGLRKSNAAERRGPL
In test [7] the target is HLA-DR DRB1*1302 (DR13) (Homo sapiens, UniProt P01903+P01911, A100E/A169T/K41T/L162R/M171V/P40S/Q125H/Q178H/Q39Y/Q99D/R42S/S66N/T262R/V115G/W38E/Y61H). As to conditions: DRBI *1302.
Chain of HLA-DR DRB1*1302 (DR13) (P01903 26-254 limits assumed, other chains not shown): as above
Test [8] addresses HLA-DR DRB1*1501 (DR15) (Homo sapiens, UniProt P01903+P01911). As to conditions: DRBI *1501.
The target in test [9] is HLA-DR DRB3*0101 (DR52) (Homo sapiens, UniProt P01903+P79483).
In test [10] the target is HLA-DR DRB4*0101 (DR53) (Homo sapiens, UniProt P01903+P13762, G164S). As to conditions: DRB4 *0101.
Test [11] addresses HLA-DR DRB5*0101 (DR51) (Homo sapiens, UniProt P01903+Q30154). Particulars: DRB5 *0101.

No end group written: not given here. Some results are limits rather than exact numbers.

As for PHPLYNMSLLKHQSL, the IC50 in test [1] turned out to be 19.1 µM; in [2], 0.819 µM; in [3] it was 20.7 µM; in test [4] it was 3.31 µM; in test [5], 1.59 µM; in [6] it was 6.46 µM. Besides, the IC50 in test [7] is 3.31 µM; in [8], 3.87 µM; in test [9], above 14.9 µM; in test [10] it was 0.049 µM; in test [11], 1.9 µM.

For the molecule PEEFLRPRSLQCVSL, the IC50 was 2 µM in test [1]; above 26.7 µM in test [2]; 5.16 µM in test [3]; 2.21 µM in [4]; 5.84 µM in test [5]; 10.7 µM in [6]. For the same molecule, the IC50 in test [7] is 11.7 µM; in test [8], 3.19 µM; in test [9], above 14.4 µM; in [10] it was 0.117 µM; in test [11] it was 57.5 µM.

Regarding SLSLGFLFLLFFWLD, the IC50 in test [1] was 11.4 µM; in [2], 4.71 µM; in test [3] it was 22.7 µM; in test [4], above 123 µM; in test [5] it was 24.6 µM; in test [6], 100 µM. Further, the IC50 in test [7] was 0.639 µM; in test [8] it was 11.4 µM; in test [9] it was 3.71 µM; in [10], above 11 µM; in [11] it was 66.7 µM.

Regarding `CC[C@H](C)[C@H](NC(=O)CNC(=O)[C@H](CCCNC(=N)N)NC(=O)[C@H](CCCNC(=N)N)NC(=O)[C@H](Cc1ccc(O)cc1)NC(=O)[C@H](C)NC(=O)[C@H](Cc1ccc(O)cc1)NC(=O)[C@@H](N)CCC(=O)O)C(=O)N[C@@H](C)C(=O)N[C@@H](CCC(=O)O)C(=O)N[C@@H](C)C(=O)N[C@H](C(=O)NCC(=O)N[C@@H](CC(C)C)C(=O)N1CCC[C@H]1C(=O)O)C(C)C`, the IC50 came to 0.0051 µM in test [1]; 0.213 µM in [2]; 0.07 µM in [3]; 0.596 µM in test [4]; 0.067 µM in test [5]; 2.59 µM in test [6]. The IC50 in test [7] was 5.22 µM; in test [8] it was above 45.5 µM; in [9], 8.77 µM; in test [10] it was 6.32 µM; in [11], 1.2 µM.

Take GKVFRGNKVKNAQLA: the IC50 in test [1] was 0.612 µM; in test [2], 1.09 µM; in test [3] it was 2.35 µM; in test [4], 4.12 µM; in [5], 31.3 µM; in test [6], 0.894 µM. The IC50 in test [7] came out at 0.046 µM; in test [8], 3.37 µM; in [9], 7.59 µM; in test [10], 7.88 µM.

In the case of `CC(C)C[C@H](NC(=O)[C@H](CCC(=O)O)NC(=O)[C@H](CCCCN)NC(=O)[C@H](C)NC(=O)[C@H](CC(C)C)NC(=O)[C@@H](NC(=O)[C@H](CO)NC(=O)[C@H](CCCNC(=N)N)NC(=O)[C@@H](N)CC(=O)O)C(C)C)C(=O)N[C@@H](CCCCN)C(=O)N[C@@H](Cc1ccccc1)C(=O)N[C@H](C(=O)N[C@H](C(=O)N[C@@H](CC(C)C)C(=O)N[C@H](C(=O)O)C(C)C)[C@@H](C)O)C(C)C`, the IC50 in [3] worked out at 2.02 µM; in test [4], 15.8 µM; in [5], 4.72 µM; in test [6], 21 µM; in [7] it was 4.41 µM; in test [8], 1.36 µM. Further, the IC50 in test [9] is above 14.4 µM; in test [10], 0.053 µM; in [11] it was 2.22 µM.

For the molecule `CC[C@H](C)[C@H](NC(=O)[C@H](CS)NC(=O)[C@H](Cc1c[nH]cn1)NC(=O)[C@H](C)NC(=O)[C@H](C)NC(=O)[C@@H](NC(=O)[C@H](CC(C)C)NC(=O)[C@@H](NC(=O)[C@H](Cc1c[nH]c2ccccc12)NC(=O)[C@@H](N)CCC(N)=O)C(C)C)[C@@H](C)O)C(=O)N[C@@H](CCCNC(=N)N)C(=O)N[C@@H](CC(N)=O)C(=O)N[C@@H](CCCCN)C(=O)N[C@@H](CO)C(=O)N[C@H](C(=O)O)C(C)C`, the IC50 stood at 0.05 µM in test [1]; 19.4 µM in [2]; 0.214 µM in test [3]; 2.6 µM in test [4]; 0.967 µM in test [5]; 2.17 µM in test [6]. Also, the IC50 was determined as 2.06 µM in test [7]; 13.6 µM in test [8]; 7.34 µM in test [9]; 3.8 µM in test [10]; 0.035 µM in test [11].

As for `CC[C@H](C)[C@H](NC(=O)[C@@H]1CCCN1C(=O)[C@H](CC(=O)O)NC(=O)[C@@H](NC(=O)[C@@H]1CCCN1C(=O)[C@H](Cc1ccccc1)NC(=O)[C@@H](NC(=O)[C@H](CC(=O)O)NC(=O)[C@@H](NC(=O)[C@@H]1CCCN1C(=O)[C@H](CO)NC(=O)[C@@H](N)CCCNC(=N)N)[C@@H](C)CC)[C@@H](C)O)[C@@H](C)O)C(=O)N[C@@H](CCCCN)C(=O)N[C@@H](CCC(=O)O)C(=O)N[C@@H](CO)C(=O)O`, the IC50 in test [1] was above 50 µM; in [3], above 62.5 µM; in [4] it was above 245 µM; in [5], 6.12 µM; in [6] it was above 200 µM; in test [7], above 35 µM. Besides, the IC50 was 2.37 µM in test [8], above 14.4 µM in test [9], 0.469 µM in test [10] and 28.6 µM in [11].

In the case of `CC[C@H](C)[C@H](NC(=O)[C@@H](NC(=O)[C@@H]1CCCN1C(=O)CNC(=O)[C@@H](NC(=O)[C@H](CC(C)C)NC(=O)[C@H](CCC(=O)O)NC(=O)[C@H](C)NC(=O)[C@@H](N)Cc1ccccc1)C(C)C)C(C)C)C(=O)N1CCC[C@H]1C(=O)N[C@@H](CCC(N)=O)C(=O)N[C@@H](CC(=O)O)C(=O)N[C@@H](Cc1c[nH]c2ccccc12)C(=O)N[C@@H](CO)C(=O)N[C@H](C(=O)O)[C@@H](C)O`, the IC50 in test [1] was 0.012 µM; in test [3] it was 24.1 µM; in [4], above 245 µM; in [5] it was 39.5 µM; in [6] it was above 50 µM; in test [7] it was above 35 µM. In addition, the IC50 was above 45.5 µM in [8], above 15 µM in test [9], 0.983 µM in test [10] and above 200 µM in test [11].

In the case of `CSCC[C@H](NC(=O)[C@H](CC(=O)O)NC(=O)[C@H](Cc1ccc(O)cc1)NC(=O)[C@H](CC(C)C)NC(=O)[C@@H]1CCCN1C(=O)[C@H](Cc1c[nH]cn1)NC(=O)[C@@H]1CCCN1)C(=O)N[C@@H](CO)C(=O)N[C@@H](CC(C)C)C(=O)N[C@@H](CC(C)C)C(=O)N[C@@H](CCCCN)C(=O)N[C@@H](CC(N)=O)C(=O)N[C@@H](CCCNC(=N)N)C(=O)N[C@@H](Cc1ccccc1)C(=O)N[C@@H](CC(C)C)C(=O)O`, the IC50 in test [2] was 20.8 µM; in test [3], 10.7 µM; in test [4], 29.8 µM; in test [5] it was 12.8 µM; in test [6], above 50 µM; in test [7], 11.7 µM. In addition, the IC50 is 0.712 µM in test [8], above 13.5 µM in [9], 7.49 µM in [10] and 3.1 µM in [11].

In the case of DFEVFFQRLGIASGR, the IC50 in test [2] was found to be 0.221 µM; in test [3], 21.9 µM; in test [4], 0.122 µM; in [5], 2 µM; in [6], 0.128 µM; in [7], 10.1 µM. Moreover, the IC50 turned out to be 10.2 µM in [8], 30.7 µM in test [9], 0.0042 µM in test [10] and 3.56 µM in [11].
